Measurements: patent US20260200920A1, “SUBSTITUTED AMINOPYRIDINE COMPOUNDS FOR USE AS AKT1 INHIBITORS” (Atavistik Bio, Inc., priority 2023, published 2026)

Key:
[1] = target: T1, human recombinant kinase full-length AKT1 E17K (Homo sapiens, UniProt P31749, E17K); test: AKT1 E17K kinase assay (TR-FRET, Lance); assay type: biochemical; details: 0.6 nM AKT1 E17K, 50 nM Ulight-CREBtide, either 50 μM ATP or 2 mM ATP, 60 min at RT
T1 construct: Purified human recombinant kinase full-length AKT1 E17K was expressed in insect cells; made in house; host or cells: insect cells
Outline: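 Full-length AKT1 E17K from insect cells, PDPK1-activated, at 0.6 nM with 50 nM Ulight-CREBtide and 50 μM or 2 mM ATP, pH 7.5, 1% DMSO. Enzyme and compound preincubated 15 min, reaction run 60 min at RT; Eu-anti-phospho-CREB (Ser133) TR-FRET 665/620 ratio, 10-point curve, IC50 by 4-parameter fit.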

[2] = target: T2, human recombinant kinase full-length wildtype AKT1 (Homo sapiens, UniProt P31749); test: AKT1 kinase assay (wildtype, TR-FRET, Lance); assay type: biochemical; details: 0.6 nM wildtype AKT1, 50 nM Ulight-CREBtide, either 50 μM ATP or 2 mM ATP, 60 min at RT
T2 construct: Purified human recombinant kinase full-length wildtype AKT1 was expressed in insect cells; made in house; host or cells: insect cells
Outline: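 Insect-cell-expressed full-length human AKT1, PDPK1-activated (0.6 nM), preincubated with compound 15 min at RT, then reacted 60 min at RT with 50 nM ULight-CREBtide and 50 μM or 2 mM ATP (pH 7.5, 1% DMSO). Phospho-CREBtide read by Eu-anti-phospho-Ser133 TR-FRET (665/620 ratio); IC50 from 10-point 4-parameter fit.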

T2 sequence (P31749 whole entry): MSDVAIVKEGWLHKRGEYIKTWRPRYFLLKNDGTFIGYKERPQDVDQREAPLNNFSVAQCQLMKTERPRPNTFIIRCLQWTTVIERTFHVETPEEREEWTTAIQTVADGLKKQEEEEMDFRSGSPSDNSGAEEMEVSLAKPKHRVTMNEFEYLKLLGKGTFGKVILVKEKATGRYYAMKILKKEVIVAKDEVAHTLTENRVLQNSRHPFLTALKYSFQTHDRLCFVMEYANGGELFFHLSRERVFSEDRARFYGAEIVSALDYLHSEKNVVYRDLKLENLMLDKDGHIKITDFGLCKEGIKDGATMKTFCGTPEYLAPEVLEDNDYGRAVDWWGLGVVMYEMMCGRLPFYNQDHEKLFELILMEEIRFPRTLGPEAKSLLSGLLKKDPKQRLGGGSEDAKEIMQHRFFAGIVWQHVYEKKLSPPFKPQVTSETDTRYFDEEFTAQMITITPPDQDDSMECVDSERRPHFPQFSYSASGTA
T1 sequence (P31749 whole entry E17K): as the sequence (P31749 whole entry) above, with E17K counted along it

Compound: CC1(C)CN(Cc2ccc(-n3c(-c4cccnc4N)nc4ccc(-c5ccccc5)nc43)cc2)CCC1C(=O)O (stereo not shown) [Compound I-85, 1-[[4-[2-(2-amino-3-pyridyl)-5-phenyl-imidazo[4,5-b]pyridin-3-yl]phenyl]methyl]-3,3-dimethyl-piperidine-4-carboxylic acid]
- IC50 [1]: ≥ 2000 nM
- IC50 [2]: < 20000 nM

Compound: Nc1ncccc1-c1nc2ccc(-c3ccccc3)nc2n1-c1ccc(NC(=O)C2CC3C(C2)C3C(=O)O)nc1 (stereo not shown) [Compound I-48, 3-((5-(2-(2-aminopyridin-3-yl)-5-phenyl-3H-imidazo[4,5-b]pyridin-3-yl)pyridin-2-yl)carbamoyl)bicyclo[3.1.0]hexane-6-carboxylic acid]
- IC50 [1]: < 500 nM
- IC50 [2]: < 20000 nM

Compound: Nc1ncccc1-c1nc2ccc(-c3ccccc3)nc2n1-c1ccc(NC2CCC(C(=O)O)C2)nc1 (stereo not shown) [Compound I-13, 3-((5-(2-(2-aminopyridin-3-yl)-5-phenyl-3H-imidazo[4,5-b]pyridin-3-yl)pyridin-2-yl)amino)cyclopentane-1-carboxylic acid]
- IC50 [1]: ≥ 2000 nM
- IC50 [2]: < 20000 nM

Compound: CNS(=O)(=O)C1CCC(CN2CC(c3ccc(-n4c(-c5cccnc5N)nc5ccc(-c6ccccc6)nc54)cc3)C2)CC1 (stereo not shown) [Compound I-152]
- IC50 [1]: 500 to 2000 nM
- IC50 [2]: < 20000 nM

Compound: Nc1ncccc1-c1nc2ccc(-c3ccccc3)nc2n1-c1ccc(C2CCN(C[C@H]3CCC[C@@H](C(=O)O)C3)CC2)cc1 (stereo in doubt) [Compound I-191]
- IC50 [1]: 500 to 2000 nM
- IC50 [2]: < 20000 nM
